Read-outs that look alike come from different tables or passages of the source.
Tested on: brain Aβ1-42, brain Aβ1-40, plasma Aβ1-40
Test: Rat intraperitoneal dose response, brain and plasma Aβ 5 hours after dosing
Assay type: in vivo
Details: for IC50: Rattus norvegicus
Procedure: IC50 determinations for Aβ1-42 and Aβ1-40 in H4-APPsw cultures in 384-well format were determined using homogeneous time-resolved fluorescence immunoassays as previously described. The principle of these assays is illustrated in Figures 1(c) and 1(d). In other experiments using H4-APPsw cultures, Aβ was quantified by ELISA; for Aβ1-42 the combination of monoclonal antibodies was 26D6 and 565-HRP; for Aβ1-40 it was TSD and 26D6-HRP, and for Aβ1-x it was 4G8 and 26D6-HRP. In some experiments a novel 4-plex Aβ electrochemiluminescence immunoassay was used (Mesoscale Discovery catalog number N45ZA-1). Briefly, the 4-plex was carried out in 96-well format, with 4 separate spots of capture antibodies in each well. The 96-well plates were prepared by the manufacturer, with spots of monoclonal antibodies for Aβ1-42, Aβ1-40, and Aβ1-38, and an additional fourth spot of streptavidin in each well. Plates were initially incubated with blocking buffer (5% BSA in phosphate buffered saline, 200 μL per well) for 2 hours at ambient temperature and then with D2A6H-biotin conjugate (50 ng/mL in 1% BSA, phosphate buffered saline, 25 μL per well) for 1 hour. Plates were then rinsed with phosphate buffered saline before addition of experimental samples for determination of Aβ1-42, Aβ1-40, Aβ1-38, and Aβ1-37 levels, following the manufacturer's instructions as for the Aβ 3-plex kit (catalog number K15148E-1). Rat brain extracts for use in the 4-plex assay were made in 0.2% diethylamine, as previously described. For detection of rat Aβ peptides in the 4-plex (Figure 5), 252Q6-sulfo-tag conjugate was used, and for detection of human Aβ peptides from cell cultures 6E10-sulfo-tag conjugate was used. For Aβ in transiently transfected PS1/PS2 dKO fibroblasts, Aβ1-42 was quantified using an ELISA kit (WACO), and Aβ1-40 was quantified by ELISA as described above for H4-APPsw cultures. For triple transgenic mice (3xTg; [63]), human transgenic Aβ1-42 was assayed in brain homogenates using an ELISA kit (WACO). For the rat and mouse experiments illustrated in Figures 7 and 8, brain samples were prepared by solid phase extraction, and endogenous rat brain Aβ1-42 and Aβ1-40 were quantified by ELISA as previously described for wild type mice. For brain extracts made using solid phase extraction, calibration of Aβ was relative, based on the approximately linear response of the assay in the range tested. For brain extracts made in 0.2% diethylamine, Aβ1-42, Aβ1-40, Aβ1-38, and Aβ1-37 concentrations in brain and cell culture samples were determined by fitting the results of immunoassays against calibration curves derived from a range of dilutions of the corresponding synthetic peptides on each assay plate using a quadratic curve fit (Graphpad Prizm 5.0). Aβ1-x was calibrated in the same way against synthetic Aβ1-40 peptide. Results were expressed in units of pM, corrected for sample dilution.
Figure 7 BMS-869780 dose response and evaluation of residual Aβ levels in rat brain. (a) Groups of rats received intraperitoneal (IP) injections of vehicle or BMS-869780 at doses of 100, 30, 10, 3, 1, and 0.3 mg/kg. Additional rats were dosed with GSI BMS-698861 at 30 mg/kg as a positive control for Aβ-lowering. Group sizes were seven rats for each dose of BMS-869780 and 14 rats for vehicle and GSI dose groups. Brain and plasma were harvested 5 hours after dosing. Brain Aβ1-42 (green), brain Aβ1-40 (blue), brain Aβ1-x (black), and plasma Aβ1-40 (red) were determined. Values are expressed as % relative to vehicle group mean. Whiskers represent standard error. ⊗Aβ1-x was not determined in the groups dosed at 3, 1, and 0.3 mg/kg. (b) Brain Aβ1-40 was plotted against brain Aβ1-42 for each rat dosed with BMS-869780 (black ▼) and for each rat dosed with vehicle (grey ●). Values are expressed as % relative to vehicle group mean. Whiskers represent standard error. […]

[1] = 3 mg/kg IP, 5 hours after dosing

Q: Which results are given for COc1cc(Nc2nc3n(n2)CCCC[C@H]3c2ccc(F)cc2)ccc1-n1cnc(Cl)c1 [BMS-869780]?
A: plasma Aβ1-40 lowering (0.3 mg/kg IP, 5 hours after dosing): ca. 50%; brain Aβ1-40 lowering [1]: ca. 50%; brain Aβ1-42 lowering [1]: ca. 50%; residual Aβ1-40 assay signal at high plasma concentrations (best fit curve) (% relative to vehicle): 11%; residual Aβ1-42 assay signal at high plasma concentrations (best fit curve) (% relative to vehicle): 29%; IC50 (ip, four-parameter fit, 95% confidence interval 44–158 nM, read-out: apparent IC50 (plasma concentration) for plasma Aβ1-40): 0.084 µM; IC50 (ip, four-parameter fit, 95% confidence interval 618–1053 nM, read-out: apparent IC50 (plasma concentration) for brain Aβ1-42): 0.807 µM; IC50 (ip, four-parameter fit, 95% confidence interval 704–1264 nM, read-out: apparent IC50 (plasma concentration) for brain Aβ1-40): 0.943 µM; IC50 (IP, 5 hours, read-out: concentration in plasma associated with 50% lowering of brain Aβ1-42): ~1 µM; brain Aβ1-x levels (highest three doses (10, 30, 100 mg/kg IP), 5 hours): not affected; lowering of brain Aβ1-42 and Aβ1-40 (in mice and rats): ≥ 75%
